Values of other authors, collected in US9597362B2, “Use of probiotic bacteria in the treatment of infection” (TEAGASC, THE AGRICULTURE AND FOOD DEVELOPMENT AUTHORITY, priority 2003, dated 2017).

Columns and labels:
Gram-positive bacteria = settings: including methicillin resistant staphylococci, vancomycin resistant enterococci, penicillin resistant pneumococci

Row | Substance | bactericidal spectrum (Gram-positive bacteria) | pathogen translocation compared with control mice (Salmonella typhimurium; mice fed the probiotic prior to oral challenge) | survival (Salmonella typhimurium; probiotic-fed groups)
1 | Lacticin 3147 | kills all Gram-positive bacteria tested to date |  | 
2 | Lactobacillus acidophilus |  | reduced pathogen translocation to the spleen and liver | increased survival of mice
